# Measured values from EP3723746B1, “PHENOXY ACIDS FOR THE TREATMENT OF NEUROMUSCULAR DISORDERS” (NMD Pharma A/S, priority 2017, dated 2019).
# Experiments:
# soleus muscles = assay: Measurement of force in an in vitro model: recovery of contractile force of isolated rat soleus nerve-muscle preparation after tubocurarine
# Method: Recovery of force is quantified as the percentage of the force prior to tubocurarine that is recovered by the compound.
# The current invention relates to compounds that inhibit CIC-1 ion channels and increase muscle excitability and thereby improve muscle function in clinical conditions where muscle activation is failing. Such conditions result in loss of contractile function of skeletal muscle, weakness and excessive fatigue. In this series of experiments the compounds were tested for their ability to restore contractile function of isolated rat muscle when the neuromuscular transmission had been compromised akin to neuromuscular disorders.
# Experimentally, soleus muscles from 4-5 week old rats were isolated with the motor nerve remaining attached. The nerve-muscle preparations were mounted in experimental setups that enabled electrical stimulation of the motor nerve. Stimulation of the motor nerve led to activation of the muscle fibres and ensuing force production that was recorded.
# After mounting the nerve-muscle preparation in the experimental setup, the contractile function of the muscle was initially assessed under the control conditions (Figure 2A). […] The experimental condition mimics the failing neuromuscular transmission in a range of neuromuscular disorders. After addition of tubocurarine the contractile force declined over the next 90 mins to 10-50 % of the control force. 50 µM of the test compound was then added and the contractile force recovered despite the continued presence of tubocurarine. To quantify the ability of the compound to restore force the percentage of the initial force that was restored was determined after 40 mins of compound exposure (Figure 2B) and the point increase is reported in Table 3. Table 3: Percentage increase of initial force that was restored
# CIC-1 channels = target: T1, CIC-1 channels (Rattus norvegicus, UniProt P35524); assay: Electrophysiological measurement of compound inhibition of CIC-1 in rat muscle (Gm, three micro-electrode technique, soleus muscle fibres); assay type: cell-based; settings: reduction of Gm in rat soleus muscle fibres, approx. 30°C; mean ± spread, n = number of experiments
# T1 construct: from tissue; host or cells: whole soleus muscle of 12-14 week old Wistar rats
# T1 sequence (P35524 1-994): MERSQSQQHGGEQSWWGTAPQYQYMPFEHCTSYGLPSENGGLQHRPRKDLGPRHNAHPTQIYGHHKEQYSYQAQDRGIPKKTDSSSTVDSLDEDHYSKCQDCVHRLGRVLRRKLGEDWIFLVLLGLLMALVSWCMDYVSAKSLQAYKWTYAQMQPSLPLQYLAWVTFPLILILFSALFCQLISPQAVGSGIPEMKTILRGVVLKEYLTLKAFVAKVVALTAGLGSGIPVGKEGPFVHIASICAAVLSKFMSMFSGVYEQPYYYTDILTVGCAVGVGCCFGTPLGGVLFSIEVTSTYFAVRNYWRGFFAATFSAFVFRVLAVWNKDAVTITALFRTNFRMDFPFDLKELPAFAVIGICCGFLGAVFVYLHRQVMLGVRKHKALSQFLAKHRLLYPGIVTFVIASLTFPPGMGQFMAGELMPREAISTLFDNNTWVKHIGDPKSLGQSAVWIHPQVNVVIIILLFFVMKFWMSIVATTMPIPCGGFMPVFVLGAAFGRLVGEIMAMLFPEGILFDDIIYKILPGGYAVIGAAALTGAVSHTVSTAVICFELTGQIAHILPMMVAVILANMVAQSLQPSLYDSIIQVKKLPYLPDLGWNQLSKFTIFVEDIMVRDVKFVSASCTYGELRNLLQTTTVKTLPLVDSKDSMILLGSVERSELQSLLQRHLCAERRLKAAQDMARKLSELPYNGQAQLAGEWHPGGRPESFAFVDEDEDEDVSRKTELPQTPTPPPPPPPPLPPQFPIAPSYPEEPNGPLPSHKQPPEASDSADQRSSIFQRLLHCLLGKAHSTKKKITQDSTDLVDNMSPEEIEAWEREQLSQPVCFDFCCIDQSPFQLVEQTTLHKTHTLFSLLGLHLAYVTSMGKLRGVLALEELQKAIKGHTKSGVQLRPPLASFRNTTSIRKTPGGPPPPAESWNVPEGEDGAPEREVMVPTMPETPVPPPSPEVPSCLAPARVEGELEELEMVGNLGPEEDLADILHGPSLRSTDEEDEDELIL
# Text: Table 2: Inhibition of CIC-1 ion channel using compounds of the invention
compound,measurement,setting,value
"C#Cc1cc(Br)ccc1O[C@@H](C)C(=O)O [Compound A-19, (2S)-2-(4-bromo-2-ethynylphenoxy)propanoic acid]",average force (AUC) relative to initial force,"soleus muscles; Figure 2: 50 µM compound after 90 min incubation in tubocurarine, 3 muscles",recovered
same,activation at 50 µM,"soleus muscles; Rattus norvegicus, 40 min, 50 µM test compound, after 90 mins 115 nM tubocurarine, percentage of the initial force restored after 40 mins of compound exposure, read-out: Point increase",31%
same,EC50,CIC-1 channels,3.5 ± 0.6 µM
